# According to paper PMC5218480 (PLoS ONE, 2017):
# System: MV-4-11 cells
# Test: Gene expression microarray analysis (Affymetrix PrimeView) and GSEA
# Format: cell-based, human
# Conditions: ProbeSet 11717523_x_at; LIST B
compound,measurement,value
Nc1ncn([C@@H]2O[C@H](CO)[C@@H](O)[C@H]2O)c(=O)n1 [azacitidine],"RFU, TMEM50B",81.58 RFU
